Test results reported in patent publication US20260263593A1, “ALLERGY ANTIGEN AND EPITOPE THEREOF” (HOYU CO., LTD., priority 2018, published 2026).

System: IgE antibody present in the serum of a shrimp-allergic patient
Test: Epitope mapping (1): array of overlapping 15-amino-acid peptides, chemiluminescence
Format: binding, human
Details: 15-amino-acid peptide array; serum of 37 patients; difference from N2nd value of 5 non-shrimp-allergic subjects at least 35,000
Experimental: Epitope mapping was carried out using a library of overlapping peptides (length: 15 amino acids) corresponding to the amino acid sequences identified as allergy components of shrimp and the amino acid sequence of arginine kinase. Specifically, the library of overlapping peptides was prepared on the basis of the amino acid sequences of SEQ ID NOs: 117, 141, 146, 2, 45, 87, 276, 161, 230, 179, 362, 381, 399, 421, 455, 481, 486, 520, 541, 300 and 306, and arginine kinase.
The peptides to be synthesized were shifted by 10 amino acids.
For preparation of peptide arrays, the Intavis CelluSpots™ technique was used. Specifically, the peptide arrays were prepared by the following procedure: (1) synthesizing peptides of interest on amino-modified cellulose disks using an automated chemical synthesis apparatus (Intavis MultiPep RS), (2) dissolving the amino-modified cellulose disks to obtain a cellulose-bound peptide solution, and (3) spotting the cellulose-bound peptides onto coated glass slides. The details of each procedure are as described below.
Peptide synthesis was carried out in incremental steps through 9-fluorenylmethoxycarbonyl (Fmoc) chemical reaction on amino-modified cellulose disks in 384-well synthesis plates. Specifically, amino acids in which a Fmoc group is bonded to an amino group were activated in a solution of N,N′-diisopropylcarbodiimide (DIC) and 1-hydroxybenzotriazole (HOBt) in dimethylformamide (DMF) and added dropwise to the cellulose disks so that the Fmoc group-bound amino acids were bound to the amino groups on the cellulose disks (coupling). Unreacted amino groups were capped with acetic anhydride and washed with DMF. Furthermore, the Fmoc groups were eliminated from the amino groups of the amino acids bound to the amino groups on the cellulose disks by treatment with piperidine and washing with DMF. The amino acids bound to the amino groups on the cellulose disks were repetitively subjected to the coupling, the capping, and the Fmoc group elimination described above to elongate the amino terminus for peptide synthesis.
The peptides-bound cellulose disks of interest obtained above in the subsection titled “(1) Synthesis of peptide” were transferred to 96-well plates and treated with a side chain deprotection mixed solution of trifluoroacetic acid (TFA), dichloromethane, triisopropylsilane (TIPS), and water for deprotection of amino acid side chains. Then, the deprotected cellulose-bound peptides were dissolved in a mixed solution of TFA, trifluoromethanesulfonic acid (TFMSA), TIPS, and water and precipitated in tetrabutyl methyl ether (TBME), and the precipitate was resuspended in dimethyl sulfoxide (DMSO) and mixed with a mixed solution of NaCl, sodium citrate, and water to obtain a peptide solution for slide spotting.
The peptide solution for slide spotting obtained above in the subsection titled “(2) Dissolution of amino-modified cellulose disk” was spotted onto Intavis CelluSpots™ slides using Intavis Slide Spotting Robot, and the slides were dried to prepare peptide arrays.
The presence or absence of binding, to each peptide fragment, of an IgE antibody present in the serum of a shrimp-allergic patient was measured through antigen-antibody reaction using the peptide arrays. […]

| Substance | Peptide bound to an IgE antibody in serum in a patient-specific manner |
| --- | --- |
| E34: common 15-residue IgE-binding epitope sequence of polypeptide (E34), myosin heavy chain type 1-derived (VQVNPPKYEKCEDVS; VAR_SEQ 1..15 epitope) [Epitope E34] | bound to an IgE antibody in serum in a patient-specific manner |
| E37: common 15-residue IgE-binding epitope sequence of polypeptide (E37), myosin heavy chain type 1-derived (IMHQLTCNGVLEGIR; VAR_SEQ 1..15 epitope) [Epitope E37] | bound to an IgE antibody in serum in a patient-specific manner |
| E39: common 15-residue IgE-binding epitope sequence of polypeptide (E39), myosin heavy chain type 1-derived (VQKTNQDKATKDHQI; VAR_SEQ 1..15 epitope) [Epitope E39] | bound to an IgE antibody in serum in a patient-specific manner |
| E22: common 15-residue IgE-binding epitope sequence of polypeptide (E22), cyclophilin A-derived (VMELRADVVPKTAEN; VAR_SEQ 1..15 epitope) [Epitope E22] | bound to an IgE antibody in serum in a patient-specific manner |
| E47: common 15-residue IgE-binding epitope sequence of polypeptide (E47), phosphopyruvate hydratase-derived (HLKAVIKGRFGLDAT; VAR_SEQ 1..15 epitope) [Epitope E47] | bound to an IgE antibody in serum in a patient-specific manner |
| E43: common 15-residue IgE-binding epitope sequence of polypeptide (E43), myosin heavy chain type 1-derived (EIDKRIQEKEEEFDA; VAR_SEQ 1..15 epitope) [Epitope E43] | bound to an IgE antibody in serum in a patient-specific manner |
| E13: common 15-residue IgE-binding epitope sequence of polypeptide (E13), glycogen phosphorylase-derived (EWVVHLDQLTKLKPL; VAR_SEQ 1..15 epitope) [Epitope E13] | bound to an IgE antibody in serum in a patient-specific manner |
| E12: common 15-residue IgE-binding epitope sequence of polypeptide (E12), glycogen phosphorylase-derived (LPEALERWPTSMLEH; VAR_SEQ 1..15 epitope) [Epitope E12] | bound to an IgE antibody in serum in a patient-specific manner |
| E35: common 15-residue IgE-binding epitope sequence of polypeptide (E35), myosin heavy chain type 1-derived (ERGYHIFYQMMSDQV; VAR_SEQ 1..15 epitope) [Epitope E35] | bound to an IgE antibody in serum in a patient-specific manner |
| E11: common 15-residue IgE-binding epitope sequence of polypeptide (E11), myosin heavy chain type 2-derived (RSLHEIEKNAKRFEI; VAR_SEQ 1..15 epitope) [Epitope E11] | bound to an IgE antibody in serum in a patient-specific manner |
| E33: common 15-residue IgE-binding epitope sequence of polypeptide (E33), myosin heavy chain type 1-derived (TKPYDPKKSCWVPDD; VAR_SEQ 1..15 epitope) [Epitope E33] | bound to an IgE antibody in serum in a patient-specific manner |
| E2: common 15-residue IgE-binding epitope sequence of polypeptide (E2), myosin heavy chain type 1-derived (ARVISQSPAERGYHI; VAR_SEQ 1..15 epitope) [Epitope E2] | bound to an IgE antibody in serum in a patient-specific manner |
| E1: common 15-residue IgE-binding epitope sequence of polypeptide (E1), myosin heavy chain type 1-derived (ADIEVYLLEKARVIS; VAR_SEQ 1..15 epitope) [Epitope E1] | bound to an IgE antibody in serum in a patient-specific manner |
| E40: common 15-residue IgE-binding epitope sequence of polypeptide (E40), myosin heavy chain type 1-derived (EISHQDEIINKVNKE; VAR_SEQ 1..15 epitope) [Epitope E40] | bound to an IgE antibody in serum in a patient-specific manner |
| E19: common 15-residue IgE-binding epitope sequence of polypeptide (E19), mitochondrial ATP synthase subunit alpha precursor-derived (VLSIGDGIARVYGLK; VAR_SEQ 1..15 epitope) [Epitope E19] | bound to an IgE antibody in serum in a patient-specific manner |
| E8: common 15-residue IgE-binding epitope sequence of polypeptide (E8), myosin heavy chain type 2-derived (LEEADNQINQLNNLK; VAR_SEQ 1..15 epitope) [Epitope E8] | bound to an IgE antibody in serum in a patient-specific manner |
| E10: common 15-residue IgE-binding epitope sequence of polypeptide (E10), myosin heavy chain type 2-derived (HFRIKAVYEENLEHL; VAR_SEQ 1..15 epitope) [Epitope E10] | bound to an IgE antibody in serum in a patient-specific manner |
| E30: common 15-residue IgE-binding epitope sequence of polypeptide (E30), myosin heavy chain type 1-derived (MLEAKDDKKAATACF; VAR_SEQ 1..15 epitope) [Epitope E30] | bound to an IgE antibody in serum in a patient-specific manner |
| E32: common 15-residue IgE-binding epitope sequence of polypeptide (E32), myosin heavy chain type 1-derived (INELEIALDHANKAN; VAR_SEQ 1..15 epitope) [Epitope E32] | bound to an IgE antibody in serum in a patient-specific manner |
| E14: common 15-residue IgE-binding epitope sequence of polypeptide (E14), hemocyanin subunit L1-derived (ERGIDVLGDVIESSL; VAR_SEQ 1..15 epitope) [Epitope E14] | bound to an IgE antibody in serum in a patient-specific manner |
| E36: common 15-residue IgE-binding epitope sequence of polypeptide (E36), myosin heavy chain type 1-derived (GNMKFKQRGREEQAE; VAR_SEQ 1..15 epitope) [Epitope E36] | bound to an IgE antibody in serum in a patient-specific manner |
| E4: common 15-residue IgE-binding epitope sequence of polypeptide (E4), myosin heavy chain type 1-derived (HGELEESRTLLEQSD; VAR_SEQ 1..15 epitope) [Epitope E4] | bound to an IgE antibody in serum in a patient-specific manner |
| E23: common 15-residue IgE-binding epitope sequence of polypeptide (E23), cyclophilin A-derived (SCFHRVIPNFMCQGG; VAR_SEQ 1..15 epitope) [Epitope E23] | bound to an IgE antibody in serum in a patient-specific manner |
| E3: common 15-residue IgE-binding epitope sequence of polypeptide (E3), myosin heavy chain type 1-derived (GYKDQLANLMKTLNA; VAR_SEQ 1..15 epitope) [Epitope E3] | bound to an IgE antibody in serum in a patient-specific manner |
